Results from the SangsterLogP compilation.

Assay: method code SF-AS, from DOI: 10.1002/recl.19891080306

## c1ccc2c(c1)OCCOCCOCCOCCOCCOCCOc1ccccc1OCCOCCOCCO2
  logP: 1.45

## COCCOCCOc1ccccc1OCCOCCOC
  logP: 0.76

## c1ccc2c(c1)OCCOCCOCCOCCOCCO2
  logP: 0.58

## c1ccc2c(c1)OCCOCCOCCOCCOCCOCCOc1ccccc1OCCO2
  logP: 1.63

## c1ccc2c(c1)OCCOCCOCCOCCOCCOCCOCCO2
  logP: 0.45

## c1ccc2c(c1)OCCOCCOCCOCCOc1ccccc1OCCOCCOCCOCCO2
  logP: 1.8

## c1ccc2c(c1)OCCOCCOCCOCCO2
  logP: 0.91

## c1ccc2c(c1)OCCOCCOCCOCCOCCOCCOCCOCCO2
  logP: 0.23

## COCCOCCOCCOc1ccccc1OCCOCCOCCOC
  logP: 0.38

## c1ccc2c(c1)OCCOCCOCCOCCOCCOCCOCCOc1ccccc1OCCO2
  logP: 1.82

## c1ccc2c(c1)OCCOCCOCCOCCOCCOCCOCCOc1ccccc1OCCOCCOCCOCCOCCOCCOCCO2
  logP: 0.52

## c1ccc2c(c1)OCCOCCOc1ccccc1OCCOCCO2
  logP: 2.2

## COCCOCCOc1cccc(OCCOCCOC)c1
  logP: 0.86

## c1ccc2c(c1)OCCOCCOCCOCCOCCOCCOCCOCCOCCO2
  logP: 0.03

## c1ccc2c(c1)OCCOCCOCCOCCOCCOCCOCCOCCOCCOCCO2
  logP: -0.09

## c1ccc2c(c1)OCCOCCOCCOCCOCCOCCO2
  logP: 0.57

## c1ccc2c(c1)OCCOCCOCCOc1ccccc1OCCOCCOCCO2
  logP: 2.11

## COCCOCCOc1ccc(OCCOCCOC)cc1
  logP: 0.76
